Measured values taken from ChEMBL document CHEMBL1141254, “Daphnimacropodines A-D, alkaloids from Daphniphyllum macropodum” (J Nat Prod, 2007).
Active and inactive are the calls of the source.

Assays:
Type in all cases: functional, cell-based
Platelet [1] = test: Inhibition of AA-induced platelet aggregation
Platelet [2] = test: Inhibition of PAF-induced platelet aggregation
Platelet [3] = test: Inhibition of ADP-induced platelet aggregation

Measured: Activity

C[C@@H]1CN(C=O)[C@H]2[C@@H]1CC[C@]13COC(=O)CC[C@]21C1=CCC[C@@H]1CCC3=O
inactive: all assays above

C[C@@H]1CN(C=O)[C@H]2[C@@H]1CC[C@@]1(CO)C(=O)CC[C@H]3CCC=C3[C@@]21CCC(=O)O
inactive: all assays above

COC(=O)CC[C@@]12C3=CCC[C@@H]3CC[C@@H]3CN4C[C@@H](C)C(CC[C@@]31CO)C42 (some centres not stated)
inactive: all assays above

C[C@@H]1CN2C(=O)CC[C@@]34C5=CCC[C@@H]5CCC5[C@H](O)OC[C@]53CC[C@H]1[C@H]24 (some centres not stated)
inactive: all assays above
